Assay results reported in patent US20040167203A1, “Absorption enhancing agents” (priority 2003, published 2004).
Like-named read-outs stand apart in the source and are kept apart here.

How the values were obtained:
in vitro = in vitro ADME; details: human, Caco-2
Text: (§1) The Caco-2 cell line is a well-recognized in vitro screening model, which both structurally and functionally represents the small intestinal epithelium. Caco-2 cells are derived from human colon carcinoma cells and differentiate in culture to form intestinal epithelia similar to that found in the small intestine. More specifically, Caco-2 cells form a brush border with normal enzymes, form tight junctions between cells, and acquire the barrier properties of an enterocyte sheet. […] The absorption enhancers were tested using two model drugs, sampatrilat and hydrochlorothiazide. In addition, a lactate dehydrogenase (LDH) assay was conducted after the permeation studies to evaluate the cytotoxicity of the absorption enhancers as well as to discover any violation of the integrity of the Caco-2 cells. LDH is a cytosolic enzyme that is not normally secreted outside the cell. However, it leaks into the culture medium upon damage to the cell membranes. In vitro release of LDH from cells provides an accurate measure of cell membrane integrity and cell viability. […] Wu, S.-J., et al, Pharmaceutical Res., 16(8): 1266-1272 (1999); Allen, M. J. et al., Promega Notes Magazine, Number 45, p. 7 (1994); or Ehrlich, M. et al, Current Protocols in Toxicology, John Wiley & Sons, New York (2000). LDH leakage into the apical compartment of the Caco-2 cell system was used to measure the effect, if any, of a given absorption enhancer on the viability of the Caco-2 cells.
(§2) Permeability coefficients are determined as previously reported by Yazdania et.el (Yazdanian M, Glynn, S I, Wright J L, et al. 1998. Correlating partitioning and Caco-2 permeability of structurally diverse small molecular weight compounds. Pharm Res 15:1490-1494). […] The samples are analyzed by an HPLC. Transport rates (J) are determined by plotting cumulative amounts of drug permeated as a function of time. Apparent permeability coefficients Pcaco-2, are determined according to the equation Pcaco-2=J/ACi where Ci is the initial concentration of the solution in donor chamber and A is the surface area of the filter. […]

Caco-2 cell line [1] = assay type: in vitro ADME; details: human, Caco-2, 1.8 mg/mL
Description: The original cell line integrity and the effect of excipients on the integrity of cell line were also tested by measuring the flux of ^14C-mannitol.

Caco-2 cells = experiment: Lactate dehydrogenase (LDH) leakage assay after permeation studies; assay type: cell-based, human; details: relative to cells treated with Hank's balanced salt solution alone
Text: as §1

Caco-2 cell line [2] = experiment: in vitro; assay type: in vitro ADME; details: human, Caco-2, 1 % w/v
Text: as §1, §2

Caco-2 cell line [3] = assay type: in vitro ADME, human
Text: as §1
Permeability coefficients are determined as previously reported by Yazdania et.el (Yazdanian M, Glynn, S I, Wright J L, et al. 1998. Correlating partitioning and Caco-2 permeability of structurally diverse small molecular weight compounds. Pharm Res 15:1490-1494). Briefly, drug solutions were prepared in HBSS at a known final concentration. For AP to BL experiments, the solution was placed on the apical side of the cells and samples were taken from basolateral side. In contrast, for BL to AP experiments, the solution was placed on the basolateral side of the cells and samples were taken from apical side. The samples are analyzed by an HPLC. Transport rates (J) are determined by plotting cumulative amounts of drug permeated as a function of time. Apparent permeability coefficients Pcaco-2, are determined according to the equation Pcaco-2=J/ACi where Ci is the initial concentration of the solution in donor chamber and A is the surface area of the filter.

In the case of `CS(=O)(=O)N[C@@H](CCCCN)C(=O)NC[C@H](CC1(C(=O)N[C@@H](Cc2ccc(O)cc2)C(=O)O)CCCC1)C(=O)O` [Sampatrilat], the Papp A→B at 1.8 mg/mL (in vitro) is reported as 0.16 ×10⁻⁶ cm/s and the “Permeability Coefficient, Mannitol” value (Caco-2 cell line [1]) is reported as 4.9 10E−7 cm/s.
In the case of `CN(C)CC(=O)O` [N,N-dimethylglycine], the “Cytotoxicity (LDH assay)” value (Caco-2 cells) is reported as “not cytotoxic” and the “Effect on sampatrilat permeation across the Caco-2 cell line (in words)” value (Caco-2 cell line [2]) is reported as “significantly increase”.
In the case of `O=C(O)C1=C[C@@H](O)[C@@H](O)[C@H](O)C1` [Shikimic acid, shikimic acid], the “Cytotoxicity (LDH assay)” value (Caco-2 cells) is reported as “not cytotoxic”.
With `CC1(C)[C@@H](O)CC[C@]2(C)[C@H]3C(=O)C=C4[C@@H]5C[C@@](C)(C(=O)O)CC[C@]5(C)CC[C@@]4(C)[C@]3(C)CC[C@@H]12` [Glycyrrehetinic acid, 18 β-glycyrrhetinic acid] the “Potency in permeability enhancement (in words)” value (“Potency” below) (Caco-2 cell line [3]; human) was “low or no potency”.
For `O=C(O)CCCCCCCCC(=O)O` [Sebacic acid, sebacic acid], the “Cytotoxicity (LDH assay)” value (Caco-2 cells) was “not cytotoxic” and the “Effect on sampatrilat permeation across the Caco-2 cell line (in words)” value (Caco-2 cell line [2]) was “significantly increase”.
In the case of `O=C(/C=C/C=C/c1ccc2c(c1)OCO2)N1CCCCC1` [Piperine, piperine], the “Potency” value (Caco-2 cell line [3]; human) is reported as “low or no potency”.
With Vitamin E TPGS [Vitamin E TGPS] the “Potency” value (Caco-2 cell line [3]) was “low or no potency”.
In the case of `O=C1CCCCCCCCCCCCCCO1` [Cyclopentadecanolide, cyclopentadecanolide], the “Potency” value (Caco-2 cell line [3]) is reported as “low or no potency”.
